Our source for the MIC and ED50 values is ChEMBL document CHEMBL1137023, “Synthesis and antibacterial activity of arylpiperazinyl oxazolidinones with diversification of the N-substituents” (2004).

The structures appear in SMILES notation. Values after ≈ are worked out from the molar mass of the structure shown.

The subject of one assay is Enterococcus faecalis. Kind of assay: Minimum inhibitory concentration against Enterococcus faecalis ATCC 29212. Format: functional.
In assay [1] the test system is Staphylococcus aureus. Briefly: Minimum inhibitory concentration against Staphylococcus aureus ATCC 25923. Format: functional.
Assay [2] is described as follows: Minimum inhibitory concentration against […] ATCC 13813. Type of assay: functional. The settings on record: Streptococcus agalactiae.
For assay [3], the system named is Staphylococcus aureus. Briefly: Antibacterial activity against Staphylococcus aureus was evaluated in infected mice. Type of assay: functional.
A further assay concerns Streptococcus pyogenes. Kind of assay: Minimum inhibitory concentration against Streptococcus pyogenes ATCC 8668.

Turning to `CC(=S)NC[C@H]1CN(c2ccc(N3CCN(c4ccccn4)CC3)c(F)c2)C(=O)O1`, the minimum inhibitory concentration (MIC) against Enterococcus faecalis amounted to 0.25 µg/mL (≈ 0.582 µM); against Staphylococcus aureus [1], 0.06 µg/mL (≈ 0.14 µM); in assay [2] it was 0.12 µg/mL (≈ 0.279 µM).
Consider `CSC(=S)NC[C@H]1CN(c2ccc(N3CCN(c4ccccc4C)CC3)c(F)c2)C(=O)O1`, for which the minimum inhibitory concentration (MIC) (in the assay with Enterococcus faecalis; with Staphylococcus aureus [1]; in assay [2]) was 0.12 µg/mL (≈ 0.253 µM) throughout.
Turning to `CC(=S)NC[C@H]1CN(c2ccc(N3CCN(c4cccc(F)c4)CC3)c(F)c2)C(=O)O1`, the MIC with Enterococcus faecalis is 0.03 µg/mL (≈ 0.0672 µM); in the assay on Staphylococcus aureus [1] it was 0.12 µg/mL (≈ 0.269 µM); in assay [2], 0.12 µg/mL (≈ 0.269 µM).
On to `CSC(=S)NC[C@H]1CN(c2ccc(N3CCN(c4ccccn4)CC3)c(F)c2)C(=O)O1`, for which the minimum inhibitory concentration (MIC) is 0.12 µg/mL (≈ 0.26 µM) against Enterococcus faecalis, 0.06 µg/mL (≈ 0.13 µM) against Staphylococcus aureus [1] and 0.25 µg/mL (≈ 0.542 µM) in assay [2]. Besides, in the assay on Staphylococcus aureus [3], the 50% effective dose (ED50) is more than 16 mg/kg.
Regarding `CC(=S)NC[C@H]1CN(c2ccc(N3CCN(c4cccc(Cl)c4)CC3)c(F)c2)C(=O)O1`, the MIC against Enterococcus faecalis amounted to 0.06 µg/mL (≈ 0.13 µM); with Staphylococcus aureus [1], 0.03 µg/mL (≈ 0.0648 µM); in assay [2], 0.03 µg/mL (≈ 0.0648 µM). For the same molecule, the ED50 in the assay with Staphylococcus aureus [3] was more than 16 mg/kg.
As for `CC(=S)NC[C@H]1CN(c2ccc(N3CCN(c4ccccc4C)CC3)c(F)c2)C(=O)O1`, the MIC in the assay on Enterococcus faecalis worked out at 0.05 µg/mL (≈ 0.113 µM); in the assay with Staphylococcus aureus [1], 0.12 µg/mL (≈ 0.271 µM); in assay [2] it was 0.12 µg/mL (≈ 0.271 µM).
Take `NC(=S)NC[C@H]1CN(c2ccc(N3CCN(c4ccccc4)CC3)c(F)c2)C(=O)O1`: the MIC in the assay with Enterococcus faecalis is 0.12 µg/mL (≈ 0.279 µM); in the assay with Staphylococcus aureus [1] it was 0.06 µg/mL (≈ 0.14 µM); in assay [2], 0.06 µg/mL (≈ 0.14 µM).
As to `COC(=S)NC[C@H]1CN(c2ccc(N3CCN(c4cccc(OC)c4)CC3)c(F)c2)C(=O)O1`, the MIC (against Enterococcus faecalis; in the assay with Staphylococcus aureus [1]; in assay [2]) was 0.12 µg/mL (≈ 0.253 µM) throughout.
`COC(=S)NC[C@H]1CN(c2ccc(N3CCN(c4ccccc4)CC3)c(F)c2)C(=O)O1`: the MIC amounted to 0.25 µg/mL (≈ 0.562 µM) against Enterococcus faecalis, 0.25 µg/mL (≈ 0.562 µM) against Staphylococcus aureus [1] and 0.12 µg/mL (≈ 0.27 µM) in assay [2].
`NC(=S)NC[C@H]1CN(c2ccc(N3CCN(c4cccc(Cl)c4)CC3)c(F)c2)C(=O)O1`: the MIC in the assay on Enterococcus faecalis is 0.06 µg/mL (≈ 0.129 µM); against Staphylococcus aureus [1] it was 0.02 µg/mL (≈ 0.0431 µM); in assay [2] it was 0.008 µg/mL (≈ 0.0172 µM). In the assay on Staphylococcus aureus [3], the ED50 was more than 16 mg/kg.
As for `NC(=S)NC[C@H]1CN(c2ccc(N3CCN(c4ccccc4Cl)CC3)cc2)C(=O)O1`, the values for the minimal inhibitory concentration (MIC) (with Enterococcus faecalis; against Staphylococcus aureus [1]; in assay [2]) were 0.06 µg/mL (≈ 0.135 µM), 0.03 µg/mL (≈ 0.0673 µM) and 0.06 µg/mL (≈ 0.135 µM), respectively.
Take `Cc1ccccc1N1CCN(c2ccc(N3C[C@H](CNC(N)=S)OC3=O)cc2F)CC1`: the results for the MIC (against Enterococcus faecalis; in the assay with Staphylococcus aureus [1]; in assay [2]) were 0.25 µg/mL (≈ 0.564 µM), 0.12 µg/mL (≈ 0.271 µM) and 0.12 µg/mL (≈ 0.271 µM), respectively.
In the case of `NC(=S)NC[C@H]1CN(c2ccc(N3CCN(c4ccccc4Cl)CC3)c(F)c2)C(=O)O1`, the MIC against Enterococcus faecalis was determined as 0.25 µg/mL (≈ 0.539 µM); against Staphylococcus aureus [1] it was 0.12 µg/mL (≈ 0.259 µM); in assay [2] it was 0.12 µg/mL (≈ 0.259 µM).
As to `O=C1O[C@@H](COC2CNCCN2)CN1c1ccc(N2CCN(c3ccccc3Cl)CC2)c(F)c1` (stereo partly drawn), the MIC (with Enterococcus faecalis; against Staphylococcus aureus [1]; in assay [2]; in the assay with Streptococcus pyogenes) was more than 64 µg/mL throughout.
For `CSC(=S)NC[C@H]1CN(c2ccc(N3CCN(c4cccc(Cl)c4)CC3)c(F)c2)C(=O)O1`, the minimal inhibitory concentration (MIC) in the assay on Enterococcus faecalis is 0.5 µg/mL (≈ 1.01 µM); in the assay on Staphylococcus aureus [1], 0.12 µg/mL (≈ 0.242 µM); in assay [2], 1 µg/mL (≈ 2.02 µM).
`CC(=O)NC[C@H]1CN(c2ccc(N3CCOCC3)c(F)c2)C(=O)O1` [LINEZOLID]: the results for the minimum inhibitory concentration (MIC) (in the assay with Staphylococcus aureus [1]; in assay [2]; in the assay on Streptococcus pyogenes) were 0.25 µg/mL (≈ 0.741 µM), 0.5 µg/mL (≈ 1.48 µM) and 0.5 µg/mL (≈ 1.48 µM), respectively. The molecule also showed an ED50 in the assay with Staphylococcus aureus [3] of 4 mg/kg.
As for `NC(=S)NC[C@H]1CN(c2ccc(N3CCN(c4ccc(Cl)cc4)CC3)c(F)c2)C(=O)O1`, the MIC against Enterococcus faecalis is 0.5 µg/mL (≈ 1.08 µM); against Staphylococcus aureus [1] it was 0.12 µg/mL (≈ 0.259 µM); in assay [2], 0.12 µg/mL (≈ 0.259 µM).
For the molecule `O=C1O[C@@H](CO[n+]2ccco2)CN1c1ccc(N2CCN(c3ccccc3Cl)CC2)c(F)c1`, the MIC (against Enterococcus faecalis; against Staphylococcus aureus [1]; in assay [2]; against Streptococcus pyogenes) was more than 64 µg/mL in each case.
`NC(=S)NC[C@H]1CN(c2ccc(N3CCN(c4ccccn4)CC3)c(F)c2)C(=O)O1`: the figures for the MIC (against Enterococcus faecalis; against Staphylococcus aureus [1]; in assay [2]) were 0.25 µg/mL (≈ 0.581 µM), 0.12 µg/mL (≈ 0.279 µM) and 0.12 µg/mL (≈ 0.279 µM), respectively.
With `COC(=S)NC[C@H]1CN(c2ccc(N3CCN(c4cccc(Cl)c4)CC3)c(F)c2)C(=O)O1`, the MIC (with Enterococcus faecalis; in the assay with Staphylococcus aureus [1]; in assay [2]) was 0.12 µg/mL (≈ 0.251 µM) in each case.
With `CC(=S)NC[C@H]1CN(c2ccc(N3CCN(c4ccc(Cl)cc4)CC3)c(F)c2)C(=O)O1`, the minimum inhibitory concentration (MIC) came out at 0.25 µg/mL (≈ 0.54 µM) in the assay with Enterococcus faecalis, 0.12 µg/mL (≈ 0.259 µM) against Staphylococcus aureus [1] and 0.25 µg/mL (≈ 0.54 µM) in assay [2].
On to `COc1cccc(N2CCN(c3ccc(N4C[C@H](CNC(=S)SC)OC4=O)cc3)CC2)c1`, for which the values for the MIC (against Enterococcus faecalis; against Staphylococcus aureus [1]; in assay [2]) were 0.12 µg/mL (≈ 0.254 µM), 0.12 µg/mL (≈ 0.254 µM) and 0.25 µg/mL (≈ 0.529 µM), respectively.
With `CC(=S)NC[C@H]1CN(c2ccc(N3CCN(c4ccccc4)CC3)c(F)c2)C(=O)O1`, the MIC in the assay with Enterococcus faecalis worked out at 0.25 µg/mL (≈ 0.583 µM); against Staphylococcus aureus [1], 0.12 µg/mL (≈ 0.28 µM); in assay [2], 0.12 µg/mL (≈ 0.28 µM).
With `O=C1O[C@@H](COc2ccccn2)CN1c1ccc(N2CCN(c3ccccc3Cl)CC2)c(F)c1`, the MIC (in the assay with Enterococcus faecalis; in the assay with Staphylococcus aureus [1]; in assay [2]; with Streptococcus pyogenes) was more than 64 µg/mL each time.
Take `CC(=S)NC[C@H]1CN(c2ccc(N3CCN(c4ccccc4Cl)CC3)c(F)c2)C(=O)O1`: the figures for the minimum inhibitory concentration (MIC) (in the assay with Enterococcus faecalis; with Staphylococcus aureus [1]; in assay [2]) were more than 64 µg/mL, 0.12 µg/mL (≈ 0.259 µM) and 0.12 µg/mL (≈ 0.259 µM), respectively.
In the case of `NC(=S)NC[C@H]1CN(c2ccc(N3CCN(c4ccccc4)CC3)cc2)C(=O)O1`, the figures for the MIC (against Enterococcus faecalis; with Staphylococcus aureus [1]; in assay [2]) were 0.12 µg/mL (≈ 0.292 µM), 0.12 µg/mL (≈ 0.292 µM) and 0.25 µg/mL (≈ 0.607 µM), respectively.
For the molecule `NC(=S)NC[C@H]1CN(c2ccc(N3CCN(c4cccc(C(F)(F)F)c4)CC3)c(F)c2)C(=O)O1`, the values for the MIC (against Enterococcus faecalis; against Staphylococcus aureus [1]; in assay [2]) were 0.25 µg/mL (≈ 0.502 µM), 0.25 µg/mL (≈ 0.502 µM) and 0.12 µg/mL (≈ 0.241 µM), respectively.
Consider `COc1ccccc1N1CCN(c2ccc(N3C[C@H](CNC(N)=S)OC3=O)cc2F)CC1`, for which the MIC (in the assay with Enterococcus faecalis; in the assay on Staphylococcus aureus [1]; in assay [2]) was 0.25 µg/mL (≈ 0.544 µM) in each case.
Regarding `COc1cccc(N2CCN(c3ccc(N4C[C@H](CNC(N)=S)OC4=O)cc3F)CC2)c1`, the MIC against Enterococcus faecalis is 0.06 µg/mL (≈ 0.131 µM); in the assay with Staphylococcus aureus [1] it was 0.03 µg/mL (≈ 0.0653 µM); in assay [2], 0.06 µg/mL (≈ 0.131 µM).
Turning to `COC(=S)NC[C@H]1CN(c2ccc(N3CCN(c4ccccn4)CC3)c(F)c2)C(=O)O1`, the MIC is 0.12 µg/mL (≈ 0.269 µM) in the assay on Enterococcus faecalis, 0.12 µg/mL (≈ 0.269 µM) against Staphylococcus aureus [1] and 0.06 µg/mL (≈ 0.135 µM) in assay [2]. Moreover, the 50% effective dose (ED50) in the assay with Staphylococcus aureus [3] is more than 16 mg/kg.
